These results are taken from patent publication US10213427B2 (Incyte Corporation, priority 2010, dated 2019).

SMILES strings stand for the structures. pIC50: −log10 of the molar value.

Chain of FGFR3 enzyme (Millipore) (P22607 23-806): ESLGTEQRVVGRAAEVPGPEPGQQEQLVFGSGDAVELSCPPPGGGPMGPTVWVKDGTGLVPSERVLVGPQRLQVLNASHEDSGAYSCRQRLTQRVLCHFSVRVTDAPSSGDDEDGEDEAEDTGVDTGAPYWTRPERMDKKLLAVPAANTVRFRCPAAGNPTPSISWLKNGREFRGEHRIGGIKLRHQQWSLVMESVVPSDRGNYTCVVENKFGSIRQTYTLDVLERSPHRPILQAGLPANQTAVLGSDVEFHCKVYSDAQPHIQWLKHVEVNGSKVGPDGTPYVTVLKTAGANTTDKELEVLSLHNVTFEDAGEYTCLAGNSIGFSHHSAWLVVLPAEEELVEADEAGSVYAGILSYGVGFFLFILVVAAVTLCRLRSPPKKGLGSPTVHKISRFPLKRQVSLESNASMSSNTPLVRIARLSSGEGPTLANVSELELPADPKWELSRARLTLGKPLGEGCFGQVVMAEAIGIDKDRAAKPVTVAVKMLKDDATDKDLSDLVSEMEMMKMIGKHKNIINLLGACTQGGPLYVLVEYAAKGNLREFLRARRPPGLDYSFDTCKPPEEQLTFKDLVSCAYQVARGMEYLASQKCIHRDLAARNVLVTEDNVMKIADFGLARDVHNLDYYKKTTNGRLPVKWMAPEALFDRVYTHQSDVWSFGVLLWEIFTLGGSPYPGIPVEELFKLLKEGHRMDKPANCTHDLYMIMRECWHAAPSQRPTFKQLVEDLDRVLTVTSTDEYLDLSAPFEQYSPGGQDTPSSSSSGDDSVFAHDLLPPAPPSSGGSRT

The experiment deals with FGFR3 enzyme (Millipore) (Homo sapiens (Human), UniProt P22607). The experiment in a line: FGFR3 Enzymatic Assay. Type of experiment: biochemical. The conditions noted are these: FRET peptide phosphorylation, 140 μM ATP. As for the experimental part:
The inhibitor potency of compounds of the invention was measured in an enzyme assay that measures peptide phosphorylation using FRET measurements to detect product formation. Inhibitors were serially diluted in DMSO and a volume of 0.5 μL was transferred to the wells of a 384-well plate. A 10 μL volume of FGFR3 enzyme (Millipore) diluted in assay buffer (50 mM HEPES, 10 mM MgCl2, 1 mM EGTA, 0.01% Tween-20, 5 mM DTT, pH 7.5) was added to the plate and pre-incubated for 5-10 minutes. Appropriate controls (enzyme blank and enzyme with no inhibitor) were included on the plate. […] The plate was incubated at 25° C. for 1 hr. […] The plate was allowed to equilibrate for ˜1 hr before scanning the wells on a PheraStar plate reader.
GraphPad prism3 was used to analyze the data. The IC50 values were derived by fitting the data to the equation for a sigmoidal dose-response with a variable slope. Y=Bottom+(Top−Bottom)/(1+10^((Log IC50−X)*HillSlope)) where X is the logarithm of concentration and Y is the response.
For the compound `CNC(=O)Nc1cccc(-c2cnc3cc(-c4cccc(C(=O)NC(C)c5ccccc5F)c4)cnn23)c1` (centres unmarked) [Example 97, N-[1-(2-Fluorophenyl)ethyl]-3-[3-(3-{[(methylamino)carbonyl]amino}phenyl)imidazo[1,2-b]pyridazin-7-yl]benzamide], the negative-log IC50 (pIC50) is < 7.60.
As to `O=C(NCC(F)(F)F)Nc1cccc(-c2cnc3cc(-c4cnn(C5CCN(C(=O)CCC6CC6)CC5)c4)cnn23)c1` [Example 46, N-[3-(7-{1-[1-(3-Cyclopropylpropanoyl)piperidin-4-yl]-1H-pyrazol-4-yl}imidazo[1,2-b]pyridazin-3-yl)phenyl]-N′-(2,2,2-trifluoroethyl)urea], the negative-log IC50 (pIC50) was > 8.00.
Under `O=C(NCC(F)(F)F)Nc1cccc(-n2cnc3cc(-c4cccc(C(=O)NCCN5CCOCC5)c4)ccc32)c1` [Example 4, N-(2-Morpholin-4-ylethyl)-3-{1-[3-({[(2,2,2-trifluoroethyl)amino]carbonyl}amino)phenyl]-1H-benzimidazol-5-yl}benzamide] stands > 8.00.
Under `CC(C(=O)NC1CCN(C)CC1)n1cc(-c2cnn3c(-c4cccc(NC(=O)NCC(F)(F)F)c4)cnc3c2)cn1` (centres unmarked) [Example 71, N-(1-Methylpiperidin-4-yl)-2-(4-{3-[3-({[(2,2,2-trifluoroethyl)amino]carbonyl}amino)phenyl]imidazo[1,2-b]pyridazin-7-yl}-1H-pyrazol-1-yl)propanamide] stands > 8.00; under `CC(C(=O)NC[C@@H]1CCCO1)c1ccc(-c2cnn3c(-c4cccc(NC(=O)NCC(F)(F)F)c4)cnc3c2)cc1` (some centres unmarked) [Example 100], > 8.00.
Under `Cn1cc(C(=O)N2CCC(n3cc(-c4ccc5c(c4)ncn5-c4cccc(NC(=O)NCC(F)(F)F)c4)cn3)CC2)cn1` [Example 23, N-{3-[5-(1-{1-[(1-Methyl-1H-pyrazol-4-yl)carbonyl]piperidin-4-yl}-1H-pyrazol-4-yl)-1H-benzimidazol-1-yl]phenyl}-N′-(2,2,2-trifluoroethyl)urea] stands > 8.00; under `CC(C(=O)NCC1CCCO1)c1ccc(-c2ccc3c(c2)ncn3-c2cccc(NC(=O)NCC(F)(F)F)c2)cc1` (centres unmarked) [Example 18, N-(Tetrahydrofuran-2-ylmethyl)-2-(4-{1-[3-({[(2,2,2-trifluoroethyl)amino]carbonyl}amino)phenyl]-1H-benzimidazol-5-yl}phenyl)propanamide], > 8.00.
Consider `O=C(NCC(F)(F)F)Nc1cccc(-c2cnc3cc(-c4cnn(C5CCN(C(=O)CC6CC6)CC5)c4)cnn23)c1` [Example 41, N-[3-(7-{1-[1-(Cyclopropylacetyl)piperidin-4-yl]-1H-pyrazol-4-yl}imidazo[1,2-b]pyridazin-3-yl)phenyl]-N′-(2,2,2-trifluoroethyl)urea], for which the pIC50 was > 8.00.
As for `O=C(NCC(F)(F)F)Nc1cccc(-c2cnc3cc(-c4cnn(C5CCN(C(=O)NCc6ccccc6)CC5)c4)cnn23)c1` [Example 39, N-Benzyl-4-(4-{3-[3-({[(2,2,2-trifluoroethyl)amino]carbonyl}amino)phenyl]imidazo[1,2-b]pyridazin-7-yl}-1H-pyrazol-1-yl)piperidine-1-carboxamide], the negative logarithm of the IC50 (pIC50) was > 8.00.
Under `O=C(NCC(F)(F)F)Nc1cccc(-n2cnc3cc(-c4cnn(C5CCN(C(=O)N6CCCC6)CC5)c4)ccc32)c1` [Example 26, N-[3-(5-{t-[1-(Pyrrolidin-1-ylcarbonyl)piperidin-4-yl]-1H-pyrazol-4-yl}-1H-benzimidazol-1-yl)phenyl]-N′-(2,2,2-trifluoroethyl)urea] stands > 8.00; under `Cc1oncc1S(=O)(=O)N1CC(CC#N)(n2cc(-c3cnn4c(-c5cccc(NC(=O)NCC(F)(F)F)c5)cnc4c3)cn2)C1` [Example 74, N-{3-[7-(1-{3-(Cyanomethyl)-1-[(5-methylisoxazol-4-yl)sulfonyl]azetidin-3-yl}-1H-pyrazol-4-yl)imidazo[1,2-b]pyridazin-3-yl]phenyl}-N′-(2,2,2-trifluoroethyl)urea], > 8.00; under `O=C(NCC(F)(F)F)Nc1cccc(-n2cnc3cc(-c4ccc(C(=O)NCC5CCCO5)cc4)ccc32)c1` (centres unmarked) [Example 8, N-(Tetrahydrofuran-2-ylmethyl)-4-{1-[3-({[(2,2,2-trifluoroethyl)amino]carbonyl}amino)phenyl]-1H-benzimidazol-5-yl}benzamide], > 8.00.
Take `CC(C(=O)N1CCN(C)CC1)n1cc(-c2cnn3c(-c4cccc(NC(=O)NCC(F)(F)F)c4)cnc3c2)cn1` (centres unmarked) [Example 60, N-[3-(7-{1-[1-Methyl-2-(4-methylpiperazin-1-yl)-2-oxoethyl]-1H-pyrazol-4-yl}imidazo[1,2-b]pyridazin-3-yl)phenyl]-N′-(2,2,2-trifluoroethyl)urea]: the pIC50 was > 8.00.
On to `O=C(NCC(F)(F)F)Nc1cccc(-n2cnc3cc(-c4cnn(C5CCN(CC6CC6)CC5)c4)ccc32)c1` [Example 21, N-[3-(5-{1-[1-(Cyclopropylmethyl)piperidin-4-yl]-1H-pyrazol-4-yl}-1H-benzimidazol-1-yl)phenyl]-N′-(2,2,2-trifluoroethyl)urea], for which the negative logarithm of the IC50 (pIC50) was > 8.00.
Under `Cn1ccnc1CNC(=O)c1cccc(-c2ccc3c(c2)ncn3-c2cccc(NC(=O)NCC(F)(F)F)c2)c1` [Example 6, N-[(1-Methyl-1H-imidazol-2-yl)methyl]-3-{1-[3-({[(2,2,2-trifluoroethyl)amino]carbonyl}amino)phenyl]-1H-benzimidazol-5-yl}benzamide] stands > 8.00; under `O=C(NCC(F)(F)F)Nc1cccc(-n2cnc3cc(-c4ccc(C(=O)NCc5cccnc5)cc4)ccc32)c1` [Example 12, N-(Pyridin-3-ylmethyl)-4-{1-[3-({[(2,2,2-trifluoroethyl)amino]carbonyl}amino)phenyl]-1H-benzimidazol-5-yl}benzamide], > 8.00.
Under `N#CCC1(n2cc(-c3cnn4c(-c5cccc(NC(=O)NCC(F)(F)F)c5)cnc4c3)cn2)CN(CC2CC2)C1` [Example 83, N-[3-(7-{1-[3-(Cyanomethyl)-1-(cyclopropylmethyl)azetidin-3-yl]-1H-pyrazol-4-yl}imidazo[1,2-b]pyridazin-3-yl)phenyl]-N′-(2,2,2-trifluoroethyl)urea] stands 7.60 to 8.00.
Turning to `O=C(NCC(F)(F)F)Nc1cccc(-n2cnc3cc(-c4cnn(C5CCN(C(=O)Nc6cccnc6)CC5)c4)ccc32)c1` [Example 25], the pIC50 is > 8.00.
Consider `N#CCC(n1cc(-c2ccc3c(c2)ncn3-c2cccc(NC(=O)NCC(F)(F)F)c2)cn1)C(F)(F)F` (centres unmarked) [Example 22, N-[3-(5-{1-[1-(Cyanomethyl)-2,2,2-trifluoroethyl]-1H-pyrazol-4-yl}-1H-benzimidazol-1-yl)phenyl]-N′-(2,2,2-trifluoroethyl)urea], for which the pIC50 is > 8.00.
The result for `CN1CCC(CNC(=O)c2cccc(-c3ccc4c(c3)ncn4-c3cccc(NC(=O)NCC(F)(F)F)c3)c2)CC1` [Example 3, N-[(1-Methylpiperidin-4-yl)methyl]-3-{1-[3-({[(2,2,2-trifluoroethyl)amino]carbonyl}amino)phenyl]-1H-benzimidazol-5-yl}benzamide] reads > 8.00; that for `Cn1cc(C(=O)N2CCC(n3cc(-c4cnn5c(-c6cccc(NC(=O)NCC(F)(F)F)c6)cnc5c4)cn3)CC2)cn1` [Example 32, N-{3-[7-(1-{1-[(1-Methyl-1H-pyrazol-4-yl)carbonyl]piperidin-4-yl}-1H-pyrazol-4-yl)imidazo[1,2-b]pyridazin-3-yl]phenyl}-N′-(2,2,2-trifluoroethyl)urea], > 8.00; that for `Cn1ccc(S(=O)(=O)N2CCC(n3cc(-c4ccc5c(c4)ncn5-c4cccc(NC(=O)NCC(F)(F)F)c4)cn3)CC2)n1` [Example 24, N-{3-[5-(1-{1-[(1-Methyl-1H-pyrazol-3-yl)sulfonyl]piperidin-4-yl}-1H-pyrazol-4-yl)-1H-benzimidazol-1-yl]phenyl}-N′-(2,2,2-trifluoroethyl)urea], > 8.00.
Turning to `CC(C(=O)N1CCOCC1)c1ccc(-c2cnn3c(-c4cccc(NC(=O)NCC(F)(F)F)c4)cnc3c2)cc1` (centres unmarked) [Example 105, N-(3-{7-[4-(1-Methyl-2-morpholin-4-yl-2-oxoethyl)phenyl]imidazo[1,2-b]pyridazin-3-yl}phenyl)-N′-(2,2,2-trifluoroethyl)urea], the negative logarithm of the IC50 (pIC50) was > 8.00.
The result for `CC(C(=O)NC1CC1)n1cc(-c2cnn3c(-c4cccc(NC(=O)NCC(F)(F)F)c4)cnc3c2)cn1` (centres unmarked) [Example 54, N-Cyclopropyl-2-(4-{3-[3-({[(2,2,2-trifluoroethyl)amino]carbonyl}amino)phenyl]imidazo[1,2-b]pyridazin-7-yl}-1H-pyrazol-1-yl)propanamide] reads > 8.00; that for `CN1CCC(CNC(=O)c2ccc(-c3ccc4c(c3)ncn4-c3cccc(NC(=O)NCC(F)(F)F)c3)cc2)CC1` [Example 10, N-[(1-Methylpiperidin-4-yl)methyl]-4-{1-[3-({[(2,2,2-trifluoroethyl)amino]carbonyl}amino)phenyl]-1H-benzimidazol-5-yl}benzamide], > 8.00.
For the compound `CC(C(=O)NCC#N)n1cc(-c2cnn3c(-c4cccc(NC(=O)NCC(F)(F)F)c4)cnc3c2)cn1` (centres unmarked) [Example 66, N-(Cyanomethyl)-2-(4-{3-[3-({[(2,2,2-trifluoroethyl)amino]carbonyl}amino)phenyl]imidazo[1,2-b]pyridazin-7-yl}-1H-pyrazol-1-yl)propanamide], the pIC50 is > 8.00.

As usually defined, the pIC50 is the negative decadic logarithm of the IC50, by convention in mol/L. Read a low pIC50 as a high IC50.
